# Legend:
# BRG-1 = BRG-1 (Homo sapiens, UniProt P51532); assay: ATPase catalytic activity assay of BRG-1 (ADP-Glo); assay type: biochemical; details: ATPase catalytic activity, ADP-Glo; for IC50: read-out: BRG1 IC50 (μM)*; for Emax: read-out: BRG1 Max % Inhibition
# Protocol: (§1) The ATPase catalytic activity of BRM or BRG-1 was measured by the in vitro biochemical assay using ADP-Glo™ (Promega, V9102). The ADP-Glo™ kinase assay is performed in two steps once the reaction is complete. The first step is to deplete any unconsumed ATP in the reaction. The second step is to convert the reaction product ADP to ATP, which will be utilized by the luciferase to generate luminesce and be detected by a luminescence reader, such as Envision.
# (§2) Then following addition of 5 μL of ADP-Glo™ Reagent provided in the kit, the reaction incubates at room temperature for 40 minutes. Then 10 μL of Kinase Detection Reagent provided in the kit is added to convert ADP to ATP, and the reaction incubates at room temperature for 60 minutes. Finally, luminescence measurement is collected with a plate-reading luminometer, such as Envision.
# as §1, with “The” for “The ATPase catalytic activity of BRM or BRG-1 was measured by the in vitro biochemical assay using ADP-Glo™ (Promega, V9102). The”
# BRM = BRM (Homo sapiens, UniProt P51531); assay: ATPase catalytic activity assay of BRM (ADP-Glo); assay type: biochemical; details: for IC50: read-out: BRM IC50 (μM)*
# Sequence of BRM (P51531 whole entry): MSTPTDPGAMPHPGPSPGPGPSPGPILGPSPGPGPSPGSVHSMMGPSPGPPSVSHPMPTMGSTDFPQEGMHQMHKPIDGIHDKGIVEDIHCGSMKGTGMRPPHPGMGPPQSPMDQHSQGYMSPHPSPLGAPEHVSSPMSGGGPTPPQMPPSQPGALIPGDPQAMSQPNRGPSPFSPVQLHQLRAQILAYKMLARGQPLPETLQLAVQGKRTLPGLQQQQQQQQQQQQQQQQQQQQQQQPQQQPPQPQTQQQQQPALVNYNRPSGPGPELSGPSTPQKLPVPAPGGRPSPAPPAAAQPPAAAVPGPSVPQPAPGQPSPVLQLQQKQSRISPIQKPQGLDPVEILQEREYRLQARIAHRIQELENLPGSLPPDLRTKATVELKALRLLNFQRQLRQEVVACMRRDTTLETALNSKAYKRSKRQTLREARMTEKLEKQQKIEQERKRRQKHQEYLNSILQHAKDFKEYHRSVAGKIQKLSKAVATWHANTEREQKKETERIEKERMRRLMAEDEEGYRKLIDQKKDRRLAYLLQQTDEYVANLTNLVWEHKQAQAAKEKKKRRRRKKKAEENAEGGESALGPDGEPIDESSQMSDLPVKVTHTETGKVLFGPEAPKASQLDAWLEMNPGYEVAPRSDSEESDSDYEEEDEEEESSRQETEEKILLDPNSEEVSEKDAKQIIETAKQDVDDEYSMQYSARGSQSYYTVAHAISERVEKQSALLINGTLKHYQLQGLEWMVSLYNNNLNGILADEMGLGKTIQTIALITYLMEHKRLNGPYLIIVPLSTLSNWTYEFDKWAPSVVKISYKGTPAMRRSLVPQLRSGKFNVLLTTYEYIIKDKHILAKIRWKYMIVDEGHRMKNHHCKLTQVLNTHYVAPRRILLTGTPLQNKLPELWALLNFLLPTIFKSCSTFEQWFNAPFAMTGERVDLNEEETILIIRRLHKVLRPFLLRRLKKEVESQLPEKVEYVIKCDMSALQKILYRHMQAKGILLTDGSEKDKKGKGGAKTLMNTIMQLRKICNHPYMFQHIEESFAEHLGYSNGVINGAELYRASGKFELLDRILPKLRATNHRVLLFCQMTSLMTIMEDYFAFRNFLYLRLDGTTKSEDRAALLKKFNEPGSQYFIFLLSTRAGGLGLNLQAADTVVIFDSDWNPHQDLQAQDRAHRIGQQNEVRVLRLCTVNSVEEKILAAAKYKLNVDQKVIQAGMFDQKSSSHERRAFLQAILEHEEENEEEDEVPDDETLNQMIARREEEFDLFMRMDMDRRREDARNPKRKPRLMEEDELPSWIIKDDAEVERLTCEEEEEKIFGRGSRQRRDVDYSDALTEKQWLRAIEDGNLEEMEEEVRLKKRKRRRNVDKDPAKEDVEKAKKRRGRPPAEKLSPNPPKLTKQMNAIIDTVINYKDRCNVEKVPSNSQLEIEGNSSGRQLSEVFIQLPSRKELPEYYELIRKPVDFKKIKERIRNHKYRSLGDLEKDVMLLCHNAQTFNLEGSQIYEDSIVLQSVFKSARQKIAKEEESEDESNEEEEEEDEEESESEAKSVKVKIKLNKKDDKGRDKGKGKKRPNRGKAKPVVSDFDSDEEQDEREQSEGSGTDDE
# Protocol: as §1, §2
# as §1, with “The” for “The ATPase catalytic activity of BRM or BRG-1 was measured by the in vitro biochemical assay using ADP-Glo™ (Promega, V9102). The”
# Sequence of BRG-1 (P51532 whole entry): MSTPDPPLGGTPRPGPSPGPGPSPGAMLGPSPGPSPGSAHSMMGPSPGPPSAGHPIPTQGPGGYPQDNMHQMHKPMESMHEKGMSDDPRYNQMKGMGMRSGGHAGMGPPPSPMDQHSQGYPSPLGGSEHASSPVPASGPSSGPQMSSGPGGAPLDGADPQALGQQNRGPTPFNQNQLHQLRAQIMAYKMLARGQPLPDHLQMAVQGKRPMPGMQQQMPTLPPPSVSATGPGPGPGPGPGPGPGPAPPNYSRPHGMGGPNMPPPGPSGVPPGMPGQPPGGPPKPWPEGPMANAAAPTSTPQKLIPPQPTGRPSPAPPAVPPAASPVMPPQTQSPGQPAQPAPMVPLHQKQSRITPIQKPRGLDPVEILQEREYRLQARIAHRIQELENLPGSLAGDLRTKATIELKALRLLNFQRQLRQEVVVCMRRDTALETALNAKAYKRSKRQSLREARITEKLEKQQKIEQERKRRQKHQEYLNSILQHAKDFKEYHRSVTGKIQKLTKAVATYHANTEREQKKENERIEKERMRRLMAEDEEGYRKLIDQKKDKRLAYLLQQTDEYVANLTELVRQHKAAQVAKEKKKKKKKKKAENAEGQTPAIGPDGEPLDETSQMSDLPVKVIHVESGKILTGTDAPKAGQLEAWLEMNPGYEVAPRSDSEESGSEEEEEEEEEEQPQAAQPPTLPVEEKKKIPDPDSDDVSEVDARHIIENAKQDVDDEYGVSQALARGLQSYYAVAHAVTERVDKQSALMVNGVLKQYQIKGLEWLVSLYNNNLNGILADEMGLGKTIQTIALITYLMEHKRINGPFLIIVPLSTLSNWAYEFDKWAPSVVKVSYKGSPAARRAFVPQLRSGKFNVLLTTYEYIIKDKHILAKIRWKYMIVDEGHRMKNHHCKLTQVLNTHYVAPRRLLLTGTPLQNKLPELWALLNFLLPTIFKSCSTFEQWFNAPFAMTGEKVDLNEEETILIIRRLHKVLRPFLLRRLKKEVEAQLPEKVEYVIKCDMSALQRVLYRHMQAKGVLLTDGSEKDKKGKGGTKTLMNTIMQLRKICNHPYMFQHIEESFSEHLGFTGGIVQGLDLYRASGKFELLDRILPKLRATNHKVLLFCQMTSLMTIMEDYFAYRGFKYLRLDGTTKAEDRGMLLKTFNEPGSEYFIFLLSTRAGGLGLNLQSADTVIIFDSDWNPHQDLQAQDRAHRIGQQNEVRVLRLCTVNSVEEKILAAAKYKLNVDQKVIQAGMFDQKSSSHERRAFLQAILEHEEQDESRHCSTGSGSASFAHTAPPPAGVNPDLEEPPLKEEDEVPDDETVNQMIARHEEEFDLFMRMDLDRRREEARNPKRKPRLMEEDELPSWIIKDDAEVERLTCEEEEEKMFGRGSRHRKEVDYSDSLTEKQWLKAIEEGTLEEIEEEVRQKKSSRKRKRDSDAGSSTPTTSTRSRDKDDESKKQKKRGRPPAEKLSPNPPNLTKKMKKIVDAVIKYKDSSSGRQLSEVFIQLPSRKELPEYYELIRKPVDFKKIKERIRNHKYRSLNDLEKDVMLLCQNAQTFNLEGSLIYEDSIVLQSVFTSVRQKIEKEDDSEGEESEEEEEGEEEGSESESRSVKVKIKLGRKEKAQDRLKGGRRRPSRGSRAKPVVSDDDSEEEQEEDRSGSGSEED
Structure (SMILES),IC50 (BRG-1) [µM],Emax (BRG-1) [%],BRM Max % Inhibition (BRM) [%],IC50 (BRM) [µM]
"COc1cccc(-c2csc(NC(=O)CNC(=O)c3ccc4c(c3)C(C)(F)CCCO4)n2)c1 (stereo in doubt) [Compound 325, (R)-5-fluoro-N-(2-((4-(3-methoxyphenyl)thiazol-2-yl)amino)-2-oxoethyl)-5-methyl-2,3,4,5-tetrahydrobenzo[b]oxepine-7-carboxamide]",0.1 to 1,> 95,>95,0.1 to 1
"COCC(NC(=O)c1ccc2c(c1)[C@](C)(F)COC2)C(=O)Nc1nc(-c2cccc(C(F)F)c2)cs1 (stereo in doubt) [Compound 327, (S)-N-((R)-1-((4-(3-(difluoromethyl)phenyl)thiazol-2-yl)amino)-3-methoxy-1-oxopropan-2-yl)-4-fluoro-4-methylisochromane-6-carboxamide]",0.1 to 1,> 95,>95,< 0.1
"COc1cc(F)cc(-c2csc(NC(=O)C(C)NC(=O)c3ccc4c(c3)[C@](C)(F)COC4)n2)c1 (stereo in doubt) [Compound 334, (S)-4-fluoro-N-((R)-1-((4-(3-fluoro-5-methoxyphenyl)thiazol-2-yl)amino)-1-oxopropan-2-yl)-4-methylisochromane-6-carboxamide]",0.1 to 1,> 95,>95,< 0.1
"COC(=O)N1CCC[C@@H](c2csc(NC(=O)CNC(=O)c3ccc4c(c3)[C@@](C)(C#N)COC4)n2)C1 (stereo in doubt) [Compound 354, methyl (R)-3-(2-(2-((S)-4-cyano-4-methylisochromane-6-carboxamido)acetamido)thiazol-4-yl)piperidine-1-carboxylate]",0.1 to 1,> 95,>95,0.1 to 1
"C[C@@H]1CN(c2cccc(-c3csc(NC(=O)CNC(=O)c4ccc5c(c4)C(C)(CO)COC5)n3)c2)C[C@H](C)O1 (stereo in doubt) [Compound 372, (R)-N-(2-((4-(3-((cis)-2,6-dimethylmorpholino)phenyl)thiazol-2-yl)amino)-2-oxoethyl)-4-(hydroxymethyl)-4-methylisochromane-6-carboxamide]",0.1 to 1,> 95,>95,< 0.1

# Now from value to compound:
IC50 (BRG-1) [µM],Emax (BRG-1) [%],BRM Max % Inhibition (BRM) [%],IC50 (BRM) [µM],Structure (SMILES)
< 0.1,> 95,>95,< 0.1,"C[C@@H]1CN(c2cccc(-c3csc(NC(=O)CNC(=O)c4ccc5c(c4)C(F)(C(F)F)COC5)n3)c2)C[C@H](C)O1 (stereo in doubt) [Compound 308, (S)-4-(difluoromethyl)-N-(2-((4-(3-((cis)-2,6-dimethylmorpholino)phenyl)thiazol-2-yl)amino)-2-oxoethyl)-4-fluoroisochromane-6-carboxamide]"
0.1 to 1,> 95,>95,< 0.1,"CC(NC(=O)c1ccc2c(c1)[C@](C)(F)COC2)C(=O)Nc1nc(-c2cccc(N3CCC3)c2)cs1 (stereo in doubt) [Compound 319, (S)-N-((R)-1-((4-(3-(azetidin-1-yl)phenyl)thiazol-2-yl)amino)-1-oxopropan-2-yl)-4-fluoro-4-methylisochromane-6-carboxamide]"
0.1 to 1,> 90,>90,0.1 to 1,"COc1cccc(-c2csc(NC(=O)CNC(=O)c3ccc4c(c3)C(C)(F)CCCO4)n2)c1 (stereo in doubt) [Compound 324, (S)-5-fluoro-N-(2-((4-(3-methoxyphenyl)thiazol-2-yl)amino)-2-oxoethyl)-5-methyl-2,3,4,5-tetrahydrobenzo[b]oxepine-7-carboxamide]"

# Source: patent US12685735B2 (Foghorn Therapeutics Inc., priority 2020, dated 2026)
